According to PubChem BioAssay (NCI):
Where “and” joins values, the source holds several entries; their conditions need not be identical. Equal entries are not always repeated.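 Each compound was tested at five concentrations against cells in 96-well plates for 48 hours. GI50 is the concentration that inhibits growth by half. TGI: total growth inhibition.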

Experiments:
Assay in all cases: inhibition of tumour cell growth, NCI panel, 48 h
CAKI-1 renal = system: CAKI-1 renal
MALME-3M melanoma = system: MALME-3M melanoma
HS 578T breast = system: HS 578T breast
HL-60(TB) leukemia = system: HL-60(TB) leukemia
UO-31 renal = system: UO-31 renal
HCC-2998 colon = system: HCC-2998 colon
MDA-MB-231 breast = system: MDA-MB-231 breast
HOP-92 NSCLC = system: HOP-92 NSCLC
U251 CNS = system: U251 CNS
OVCAR-8 ovarian = system: OVCAR-8 ovarian

Structure (SMILES)	GI50 (CAKI-1 renal) [µM]	TGI (CAKI-1 renal)	GI50 (MALME-3M melanoma) [µM]	TGI (MALME-3M melanoma) [µM]	GI50 (HS 578T breast) [µM]	TGI (HS 578T breast) [µM]	GI50 (HL-60(TB) leukemia) [µM]	TGI (HL-60(TB) leukemia) [µM]	GI50 (UO-31 renal)	TGI (UO-31 renal) [µM]	GI50 (HCC-2998 colon) [µM]	TGI (HCC-2998 colon) [µM]	GI50 (MDA-MB-231 breast) [µM]	TGI (MDA-MB-231 breast) [µM]	GI50 (HOP-92 NSCLC) [µM]	TGI (HOP-92 NSCLC) [µM]	GI50 (U251 CNS) [µM]	TGI (U251 CNS) [µM]	GI50 (OVCAR-8 ovarian) [µM]	TGI (OVCAR-8 ovarian) [µM]
COc1ccc(-c2nc3sccn3c2/C=C/C(=O)c2cc(OC)c(OC)c(OC)c2)cc1	2.02	> 100 µM	4.39	> 100	2.18	> 24.1	3.33	82.3	2.12 µM	> 25.5	3.03	14.4	3.28	> 100	0.4	4.59	3.04	> 100	3.03	> 21.8
CCCCCCC1CCCCN1C(c1ccccc1)C(O)c1ccccc1 (centres undefined)	3.72	14.6 µM	5.37	19.7	6.68	21.1	3.01	7.01	5.69 µM	19.8	3.65	10.4	6.79	20.3	2.84	9.05	5.98	18.9	14.8	31.5
COc1cc(C(=O)/C=C/c2c(C)n([O-])c3ccc(Cl)cc3[n+]2=O)cc(OC)c1OC	10.3	> 100 µM	36.3	> 100	1.75	8.97	5.76	23.5	1.82 µM	18.1	12.8	38.7	12.9	> 100	4.47	> 100	4.52	72.3	3.18	> 100
COc1ccc2c(c1)CCC1C2CCC2(C)C(NC(=O)CCCCC3CCSS3)CCC12 (centres undefined)	23.9	> 100 µM	92.2	> 100	> 100	> 100	3.75	> 100	6.7 µM	> 100	30.7	> 100	14.1	> 100	4.16	63.4	17.5	> 100	> 100	> 100
COc1cc(C(=O)Nc2ccc(-c3nc4ccccc4[nH]3)cc2)cc(OC)c1OC	10.9	25.3 µM	12	31.6	3.54	19.3	17.8	56.4	3.92 µM	16.1	14.6	36.6	9.38	24	6.41	24.2	10.2	23.4	7.53	28.5
CCOC1OC(C)(C=C(C#N)C#N)CCC1C (centres undefined)		96.2 µM		> 100		> 89.1		80.4		97.7		> 74.3		> 100		> 100		> 100		> 68
COc1ccccc1CNCCCN1C(=O)c2ccc3c4c(ccc(c24)C1=O)C(=O)N(CCCNCCCCN)C3=O	3.31	> 42.4 µM	0.176	0.327	1.14	5.91	0.229	0.527	1.95 µM	9.92	0.171	0.417	0.236	2.78	0.4	1.65	0.206	0.731	0.244	0.933
COc1cc(/C=C/C(=O)/C=C/c2ccc(-n3ccnc3)cc2)ccc1O	3.24	11.5 µM	5.4	36.7	2.91	> 100	3.29	22.4	1.51 µM	3.15	1.79	3.42	3.47	13	10.5	27.1	2.21	5.24	3.58	> 100
CNc1ccc(CSc2ccc(C)cc2)cc1	7.94	> 100 µM	31.5	> 100	56	> 100	1.32	4.28	1.16 µM	4.32	18.8	83.2	2.45	11.7	2.36	25.9	9.85	> 100	40.5	> 100
c1ccc(-c2nc3ccccc3[nH]2)c(OCCCCCOc2ccccc2-c2nc3ccccc3[nH]2)c1	12.5	29.9 µM	12.3	44	15.4	41	2.57	7.76	11 µM	36	16.1	67.2	12.2	29.3	2.55	14.7	12.5	25.6	21.7	53
Clc1cc(Cl)cc(Nc2ccc3c(OCCCN4CCOCC4)cccc3n2)c1	7.59	22.9 µM	2.5	6.33	2.51	8.14	2.11	6.34	1.51 µM	2.94	1.82	3.51	1.8	3.94	2.03	6.94	1.98	3.95	3.54	13.3
CN(C)CC(=O)N1CCc2c([nH]c3ccccc23)C1c1cccnc1 (centres undefined)		> 100 µM	> 100	> 100	94.1	> 100		> 100		> 100		> 100	21.5	83.5		> 100		> 100		> 100
COc1ccc(C2=NOC3=c4ccccc4=CSC3=C2c2ccccc2)cc1	64.7	> 100 µM	43.7	> 100	47.4	> 100	39.7	> 100	39.2 µM	> 100	> 100	> 100	20.3	76	23.6	83.2	25.2	> 100	42.9	> 100
O=C(/C=C/c1ccccn1)c1ccccc1	3.28	12.3 µM	13.8	35.1	12.5	39.4	1.88	6.75	12.2 µM	29.9	15.4	29.9	9.92	23.8	10.4	23.6	1.94	5.43	4.18	16.1
COc1ccc(N=C2C(=O)Nc3ccc(Br)cc32)cc1		60.6 µM		43		> 100		42.7		26.5		37.4		35.3		69		96.8		32.2
COc1cc(-c2ccc[nH]2)[nH]c1/C=C1\N=C(C)C(C(=O)NC(C)C)=C1C	2.8	10.9 µM	4.6	16.9	2.84	10.5	2.4	10.3	2.72 µM	11	2.87	13.8	2.76	12.9	2.22	6.05	2.59	13.3	3.43	13.5
O=[N+]([O-])/C(=C/C=C/c1ccccc1)c1ccccc1	0.805	3.06 µM	1.84	5.4	2.86	8.41	1.09	3.55	1.46 µM	3.19	1.92	4.14	1.92	4.28	1.54	3.8	1.67	3.17	3.27	11.2
c1ccc2[nH]c(-c3cscn3)nc2c1		> 100 µM and 37.2 µM		> 100		> 100		> 100	> 100 µM and 25.8 µM	> 100		> 100		> 100		> 100		> 100		> 100
CN1CCC(C(=O)Nc2n[nH]c3nnc(-c4ccccc4)cc23)CC1	> 25	> 25 µM	> 25	> 25	16.5	> 25	> 25	> 25	> 25 µM	> 25	> 25	> 25	> 25	> 25	11.3	> 25	> 25	> 25	> 25	> 25
Cc1nc2sc(C(=O)Nc3cccc(Cl)c3)c(N)c2cc1C(O)c1ccccc1 (centres undefined)	0.789	17 µM	0.722	20.4	0.351	4.89	0.401	6.67	2.37 µM	15.6	1.98	10.5	2.52	16.9	10.4	31.3	0.584	> 100	2.51	> 100
CCCC/C=C1/CCC(CN(C)C)C1=O (centres undefined)		1.78 µM		4.07		15		4.63		5.97		3.07		9.03		3.83		4.19		4.08
O=c1ccc(=O)c2c1c1[nH]c3ccccc3c1c1c(=O)c3ccccc3c(=O)c21		> 10 µM		> 10		> 10		9.85		> 10		> 10		> 10		> 10		> 10		> 10
COc1ccc([C@H]2c3[nH]c4ccccc4c3C[C@H]3C(=O)N(CCCCCCC(=O)NO)CC(=O)N23)cc1	1.68	13.9 µM	0.806	> 33.3	1.34	> 33.3	1.19	> 33.3	1.47 µM	> 33.3	1.15	5.34	2.27	> 33.3	1.38	24.2	1.61	> 33.3	1.33	> 33.3
